Measured values published in patent publication US12103919B2, “3-(5-oxy)-1-oxoisoindolin-2-yl)piperidine-2,6-dione derivatives and uses thereof” (NOVARTIS AG, priority 2021, dated 2024).
Read-outs that look alike come from different tables or passages of the source.

Biological target: T1, WIZ (Homo sapiens, UniProt O95785+Q96SW2)
T1 construct: expressed in transfected cells
Assay: Quantification of WIZ protein levels in HiBit tag fusion protein assay (293T cells)
Type: cell-based
Parameters: Dmax: dose or concentration left out as unconfirmed
Settings: for remaining activity at 25 µM / Dmax at 25 µM / Dmax: HEK-293T; for remaining activity at 25 µM: read-out: WIZ Amax; for Dmax at 25 µM: 100 − Amax; for Dmax at 25 µM / Dmax: read-out: % degradation of WIZ (100 − Amax); for DC50: WIZ HiBit assay in 293T cells, about 18 hours, 10-point 5-fold dilution, top 25 μM, read-out: WIZ AC50
Experimental: The HiBit system from Promega was used to develop high-throughput and quantitative assays to measure changes in WIZ protein levels in response to compounds. The HiBit tag was derived from a split Nanoluciferase and has the following protein sequence: […] (SEQ ID NO: 1). The complementary fragment of Nanoluciferase (known as LgBit, from Promega), was added to the HiBit tag to form an active Nanoluciferase enzyme whose activity can be precisely measured. In this way, the levels of a fusion protein with the HiBit tag can be quantified in cell lysates.
Lentiviral vectors, based on the Invitrogen™ pLenti6.2/V5 DEST backbone were constructed that places the HiBit tag upstream of WIZ and expressed the fusion protein from an HSVTK promotor.
To ensure moderate and consistent expression of the HiBit-WIZ fusion protein across all cells in the population, stable cell lines were constructed from cells harboring a single copy of the construct. Lentivirus packaged with the constructs were made using the ViraPowerTMkit from Invitrogen™. 293T cells from ATCC (Catalog number: CRL-3216), were infected with the virus at low multiplicity of infection and selected by 5 μg/mL blasticidin in culture media for 2 weeks.
The levels of HiBit-WIZ tagged fusion proteins in compound-treated cell lines were measured as follows:
On day 1, cells were diluted to 1.0×10^6 cells/ml in normal growth medium. 20 μL of cell suspension were plated in each well of a solid white 384-well plate. Plates were incubated overnight in a 37° C. and 5% CO2 humidified tissue culture incubator.
On day 2, serial dilutions of compounds were made in 384-well plates. Compound plates were set up with DMSO in columns 1, 2, 23, 24, and 10-point compound dilution series in column 3-12 and column 13-22. 10 mM stock solution of compound were placed into column 3 or 13 and a 1:5 serial dilution was carried out until there was a 10-point dilution series per compound. 50 nL of diluted compounds were transferred into the plated cells by Echo® (Labcyte) acoustic transfer. The highest concentration of compound was 25 μM. Plates were incubated overnight (about 18 hours) in a 37° C. and 5% CO2 humidified tissue culture incubator.
On day 3, plates were removed from the incubator and allowed to equilibrate at room temperature for 60 minutes. HiBit substrate (Nano-Glo® HiBit Lytic Detection System, Promega Catalogue number: N3050) was added as described by the manufacturers protocols. Plates were incubated at room temperature for 30 minutes and luminescence was read using an EnVision® reader (PerkinElmer®). Data was analyzed and visualized using the Spotfire® software package.
WIZ Amax reflects the DMSO-normalized, curve-fitted percentage of WIZ-HiBit remaining at 25 uM. It was calculated by normalizing DMSO controls to 100%, parametric curve fitting of the dose response data (10-point, 5-fold), followed by calculation of response at 25 uM using the fitted equation.

[1] = DMSO-normalized, curve-fitted percentage of WIZ-HiBit remaining at 25 uM

T1 sequence (O95785 whole entry): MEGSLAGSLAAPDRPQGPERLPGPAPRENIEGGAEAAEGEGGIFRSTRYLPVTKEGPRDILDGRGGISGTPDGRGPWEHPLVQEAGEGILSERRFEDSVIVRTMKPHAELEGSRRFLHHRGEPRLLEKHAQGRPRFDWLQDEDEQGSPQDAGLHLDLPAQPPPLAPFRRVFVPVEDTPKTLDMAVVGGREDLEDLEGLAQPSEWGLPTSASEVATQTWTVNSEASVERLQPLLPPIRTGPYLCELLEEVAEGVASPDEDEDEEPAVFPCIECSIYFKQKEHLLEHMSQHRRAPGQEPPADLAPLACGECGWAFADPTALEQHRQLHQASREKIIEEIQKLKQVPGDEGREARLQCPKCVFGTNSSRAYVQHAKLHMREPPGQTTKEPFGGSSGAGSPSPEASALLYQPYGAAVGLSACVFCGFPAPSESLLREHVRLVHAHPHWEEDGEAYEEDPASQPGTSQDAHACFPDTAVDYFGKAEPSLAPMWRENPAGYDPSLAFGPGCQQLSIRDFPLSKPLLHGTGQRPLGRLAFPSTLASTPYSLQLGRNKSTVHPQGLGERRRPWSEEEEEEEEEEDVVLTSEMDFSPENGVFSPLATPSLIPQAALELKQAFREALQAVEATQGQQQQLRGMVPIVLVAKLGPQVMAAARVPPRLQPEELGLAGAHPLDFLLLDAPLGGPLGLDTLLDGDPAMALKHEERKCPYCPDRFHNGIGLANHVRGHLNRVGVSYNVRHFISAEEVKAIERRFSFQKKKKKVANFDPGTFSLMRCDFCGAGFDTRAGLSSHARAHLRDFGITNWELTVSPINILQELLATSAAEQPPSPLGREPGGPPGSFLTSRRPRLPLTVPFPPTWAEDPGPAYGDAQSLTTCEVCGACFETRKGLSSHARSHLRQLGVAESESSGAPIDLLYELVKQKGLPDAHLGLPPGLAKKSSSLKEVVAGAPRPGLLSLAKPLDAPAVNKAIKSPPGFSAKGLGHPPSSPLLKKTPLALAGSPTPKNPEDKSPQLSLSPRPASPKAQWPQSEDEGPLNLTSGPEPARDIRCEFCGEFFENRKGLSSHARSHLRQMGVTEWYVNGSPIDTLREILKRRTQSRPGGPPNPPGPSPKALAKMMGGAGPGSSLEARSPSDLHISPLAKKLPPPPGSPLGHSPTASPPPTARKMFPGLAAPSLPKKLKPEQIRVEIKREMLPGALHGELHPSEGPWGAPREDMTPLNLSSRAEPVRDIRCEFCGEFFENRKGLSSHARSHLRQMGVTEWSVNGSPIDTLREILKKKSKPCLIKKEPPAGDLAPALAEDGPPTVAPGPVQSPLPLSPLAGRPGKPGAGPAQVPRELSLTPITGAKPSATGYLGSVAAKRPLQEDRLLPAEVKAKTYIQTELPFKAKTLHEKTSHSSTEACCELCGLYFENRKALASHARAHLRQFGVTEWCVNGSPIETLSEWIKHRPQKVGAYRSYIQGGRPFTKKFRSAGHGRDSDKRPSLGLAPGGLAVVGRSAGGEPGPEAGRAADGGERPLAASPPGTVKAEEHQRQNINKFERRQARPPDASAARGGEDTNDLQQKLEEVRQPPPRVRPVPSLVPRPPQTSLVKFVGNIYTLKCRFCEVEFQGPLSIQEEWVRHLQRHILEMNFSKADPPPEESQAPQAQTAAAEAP
T1 sequence (Q96SW2 whole entry): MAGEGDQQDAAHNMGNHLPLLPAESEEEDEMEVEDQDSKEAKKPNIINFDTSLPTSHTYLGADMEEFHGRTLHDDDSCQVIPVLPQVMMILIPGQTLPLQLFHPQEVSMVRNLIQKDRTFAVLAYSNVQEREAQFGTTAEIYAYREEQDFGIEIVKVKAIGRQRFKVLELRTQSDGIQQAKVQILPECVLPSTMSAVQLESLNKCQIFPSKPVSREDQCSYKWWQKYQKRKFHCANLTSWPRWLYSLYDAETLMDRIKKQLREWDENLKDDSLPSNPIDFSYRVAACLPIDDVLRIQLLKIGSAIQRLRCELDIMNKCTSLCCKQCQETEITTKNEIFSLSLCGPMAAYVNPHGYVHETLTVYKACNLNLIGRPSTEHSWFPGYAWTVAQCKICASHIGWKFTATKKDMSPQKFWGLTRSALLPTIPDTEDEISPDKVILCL
T1 sequence (Q16531 whole entry partner): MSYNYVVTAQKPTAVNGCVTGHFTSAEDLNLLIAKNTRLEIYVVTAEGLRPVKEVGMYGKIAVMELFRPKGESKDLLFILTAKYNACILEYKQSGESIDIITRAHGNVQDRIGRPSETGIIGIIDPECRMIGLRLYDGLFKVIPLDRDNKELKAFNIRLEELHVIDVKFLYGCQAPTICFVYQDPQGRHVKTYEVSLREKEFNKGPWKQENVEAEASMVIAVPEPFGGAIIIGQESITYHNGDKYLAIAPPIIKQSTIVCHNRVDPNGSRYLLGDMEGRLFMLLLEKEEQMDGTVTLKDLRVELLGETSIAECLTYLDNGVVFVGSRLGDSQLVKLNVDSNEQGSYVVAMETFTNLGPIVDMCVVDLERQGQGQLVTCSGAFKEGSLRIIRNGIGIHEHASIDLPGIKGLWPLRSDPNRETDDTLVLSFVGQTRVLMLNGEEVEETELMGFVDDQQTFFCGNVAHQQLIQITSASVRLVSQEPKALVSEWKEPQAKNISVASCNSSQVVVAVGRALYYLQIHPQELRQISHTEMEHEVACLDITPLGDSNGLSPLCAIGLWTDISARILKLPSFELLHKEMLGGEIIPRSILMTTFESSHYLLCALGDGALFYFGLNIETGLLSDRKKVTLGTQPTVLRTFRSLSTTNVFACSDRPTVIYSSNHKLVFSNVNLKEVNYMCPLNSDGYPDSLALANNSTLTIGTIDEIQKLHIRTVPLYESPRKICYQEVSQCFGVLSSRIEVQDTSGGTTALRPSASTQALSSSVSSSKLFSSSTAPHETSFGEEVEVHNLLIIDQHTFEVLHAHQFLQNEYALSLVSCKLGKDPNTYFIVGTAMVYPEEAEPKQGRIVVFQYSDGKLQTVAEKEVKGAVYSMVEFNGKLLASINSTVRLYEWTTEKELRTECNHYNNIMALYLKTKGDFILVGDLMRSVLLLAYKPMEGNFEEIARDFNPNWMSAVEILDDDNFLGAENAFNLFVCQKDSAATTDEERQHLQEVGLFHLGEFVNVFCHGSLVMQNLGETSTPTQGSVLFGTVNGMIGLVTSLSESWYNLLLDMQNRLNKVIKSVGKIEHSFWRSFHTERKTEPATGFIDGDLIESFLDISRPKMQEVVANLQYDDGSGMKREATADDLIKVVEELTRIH

Compound	remaining activity at 25 µM [1] [%]	Dmax at 25 µM [%]	DC50 [nM]	Dmax [%]	remaining activity at 25 µM [%]
CC#CCN1CCC[C@@H](Oc2ccc3c(c2)CN(C2CCC(=O)NC2=O)C3=O)C1 (stereo partly drawn) [Example 24, 3-(5-(((R)-1-(but-2-yn-1-yl)piperidin-3-yl)oxy)-1-oxoisoindolin-2-yl)piperidine-2,6-dione]	47.3	52.7	10	–	–
O=C1CCC(N2Cc3cc(O[C@@H]4CCCN(CC#CC5CC5)C4)ccc3C2=O)C(=O)N1 (stereo partly drawn) [Example 25, 3-(5-(((R)-1-(3-cyclopropylprop-2-yn-1-yl)piperidin-3-yl)oxy)-1-oxoisoindolin-2-yl)piperidine-2,6-dione]	50.2	49.8	7.5	–	–
CCO[C@H]1C[C@@H](N2CCC[C@@H](Oc3ccc4c(c3)CN(C3CCC(=O)NC3=O)C4=O)C2)C1 (stereo partly drawn) [Example 26, 3-(5-(((R)-1-((1s,3S)-3-ethoxycyclobutyl)piperidin-3-yl)oxy)-1-oxoisoindolin-2-yl)piperidine-2,6-dione]	58.9	41.1	21	–	–
CO[C@H]1C[C@H](CN2CCC[C@@H](Oc3ccc4c(c3)CN(C3CCC(=O)NC3=O)C4=O)C2)C1 (stereo partly drawn) [Example 27, 3-(5-(((R)-1-(((1r,3R)-3-methoxycyclobutyl)methyl)piperidin-3-yl)oxy)-1-oxoisoindolin-2-yl)piperidine-2,6-dione]	60.3	39.7	130	–	–
O=C1CCC(N2Cc3cc(O[C@@H]4CCCN(C5CC6(CCOCC6)C5)C4)ccc3C2=O)C(=O)N1 (stereo partly drawn) [Example 28, 3-(5-(((R)-1-(7-oxaspiro[3.5]nonan-2-yl)piperidin-3-yl)oxy)-1-oxoisoindolin-2-yl)piperidine-2,6-dione]	67.1	32.9	84	–	–
CO[C@H]1CC[C@H](CN2CCC[C@@H](Oc3ccc4c(c3)CN(C3CCC(=O)NC3=O)C4=O)C2)CC1 (stereo partly drawn) [Example 30, 3-(5-(((R)-1-(((1r,4R)-4-methoxycyclohexyl)methyl)piperidin-3-yl)oxy)-1-oxoisoindolin-2-yl)piperidine-2,6-dione]	70.8	29.2	79	–	–
C=CCCN1CCC[C@@H](Oc2ccc3c(c2)CN(C2CCC(=O)NC2=O)C3=O)C1 (stereo partly drawn) [Example 31, 3-(5-(((R)-1-(but-3-en-1-yl)piperidin-3-yl)oxy)-1-oxoisoindolin-2-yl)piperidine-2,6-dione]	31.4	68.6	8.9	–	–
CC[C@@H](C)N1CCC[C@@H](Oc2ccc3c(c2)CN(C2CCC(=O)NC2=O)C3=O)C1 (stereo partly drawn) [Example 32, 3-(5-(((R)-1-((R)-sec-butyl)piperidin-3-yl)oxy)-1-oxoisoindolin-2-yl)piperidine-2,6-dione]	19.2	80.8	1.7	–	–
CC[C@H](C)N1CCC[C@@H](Oc2ccc3c(c2)CN(C2CCC(=O)NC2=O)C3=O)C1 (stereo partly drawn) [Example 33, 3-(5-(((R)-1-((S)-sec-butyl)piperidin-3-yl)oxy)-1-oxoisoindolin-2-yl)piperidine-2,6-dione]	18.6	81.4	1.5	–	–
CCN1CCCC[C@@H](Oc2ccc3c(c2)CN(C2CCC(=O)NC2=O)C3=O)C1 (stereo partly drawn) [Example 36, 3-(5-(((R)-1-ethylazepan-3-yl)oxy)-1-oxoisoindolin-2-yl)piperidine-2,6-dione]	–	–	57	67.5	32.5
CCN1CCCC[C@H](Oc2ccc3c(c2)CN(C2CCC(=O)NC2=O)C3=O)C1 (stereo partly drawn) [Example 37, 3-(5-(((S)-1-ethylazepan-3-yl)oxy)-1-oxoisoindolin-2-yl)piperidine-2,6-dione]	–	–	> 25000	–	103
CC(C)CN1CCCC[C@@H](Oc2ccc3c(c2)CN(C2CCC(=O)NC2=O)C3=O)C1 (stereo partly drawn) [Example 38, 3-(5-(((R)-1-isobutylazepan-3-yl)oxy)-1-oxoisoindolin-2-yl)piperidine-2,6-dione]	35.6	64.3	25	–	–
CCN1CC[C@@H](Oc2ccc3c(c2)CN(C2CCC(=O)NC2=O)C3=O)C1 (stereo partly drawn) [Example 39, 3-(5-(((R)-1-ethylpyrrolidin-3-yl)oxy)-1-oxoisoindolin-2-yl)piperidine-2,6-dione]	–	–	210	52.1	47.9
CCN1CC[C@H](Oc2ccc3c(c2)CN(C2CCC(=O)NC2=O)C3=O)C1 (stereo partly drawn) [Example 40, 3-(5-(((S)-1-ethylpyrrolidin-3-yl)oxy)-1-oxoisoindolin-2-yl)piperidine-2,6-dione]	73.5	26.5	770	–	–
O=C1CCC(N2Cc3cc(O[C@@H]4CCCN(C5CCCC5)C4)ccc3C2=O)C(=O)N1 (stereo partly drawn) [Example 42, 3-(5-(((R)-1-cyclopentylpiperidin-3-yl)oxy)-1-oxoisoindolin-2-yl)piperidine-2,6-dione]	22.9	77.1	3.6	–	–
O=C1CCC(N2Cc3cc(O[C@@H]4CCCN(C5CCCCC5)C4)ccc3C2=O)C(=O)N1 (stereo partly drawn) [Example 43, 3-(5-(((R)-1-cyclohexylpiperidin-3-yl)oxy)-1-oxoisoindolin-2-yl)piperidine-2,6-dione]	28.1	71.9	3.7	–	–
CCN1C[C@@H](F)C[C@@H](Oc2ccc3c(c2)CN(C2CCC(=O)NC2=O)C3=O)C1 (stereo partly drawn) [Example 59, 3-(5-(((3R,5S)-1-ethyl-5-fluoropiperidin-3-yl)oxy)-1-oxoisoindolin-2-yl)piperidine-2,6-dione]	–	–	2.6	64.4	35.6
CCN1C[C@H](F)C[C@@H](Oc2ccc3c(c2)CN(C2CCC(=O)NC2=O)C3=O)C1 (stereo partly drawn) [Example 60, 3-(5-(((3R,5R)-1-ethyl-5-fluoropiperidin-3-yl)oxy)-1-oxoisoindolin-2-yl)piperidine-2,6-dione]	–	–	78	37	63
CCO[C@@H]1C[C@@H](Oc2ccc3c(c2)CN(C2CCC(=O)NC2=O)C3=O)CN(CC)C1 (stereo partly drawn) [Example 63, 3-(5-(((3R,5R)-5-ethoxy-1-ethylpiperidin-3-yl)oxy)-1-oxoisoindolin-2-yl)piperidine-2,6-dione]	–	–	0.12	79.5	20.5
CCN1C[C@H](OC)C[C@@H](Oc2ccc3c(c2)CN(C2CCC(=O)NC2=O)C3=O)C1 (stereo partly drawn) [Example 64, 3-(5-(((3R,5R)-1-ethyl-5-methoxypiperidin-3-yl)oxy)-1-oxoisoindolin-2-yl)piperidine-2,6-dione]	–	–	6.3	79.5	20.6
CCN1C[C@H](O)C[C@@H](Oc2ccc3c(c2)CN(C2CCC(=O)NC2=O)C3=O)C1 (stereo partly drawn) [Example 66, 3-(5-(((3R,5R)-1-ethyl-5-hydroxypiperidin-3-yl)oxy)-1-oxoisoindolin-2-yl)piperidine-2,6-dione]	19.9	80.1	33.3	–	–
CC(C)N1C[C@H](O)C[C@@H](Oc2ccc3c(c2)CN(C2CCC(=O)NC2=O)C3=O)C1 (stereo partly drawn) [Example 67, 3-(5-(((3R,5R)-5-hydroxy-1-isopropylpiperidin-3-yl)oxy)-1-oxoisoindolin-2-yl)piperidine-2,6-dione]	16.9	83.1	11.2	–	–
CCO[C@@H]1C[C@@H](Oc2ccc3c(c2)CN(C2CCC(=O)NC2=O)C3=O)CN(C(=O)NC)C1 (stereo partly drawn) [Example 68, (3R,5R)-3-((2-(2,6-dioxopiperidin-3-yl)-1-oxoisoindolin-5-yl)oxy)-5-ethoxy-N-methylpiperidine-1-carboxamide]	105	–	> 25000	–	–
CCOC(=O)N1C[C@H](OCC)C[C@@H](Oc2ccc3c(c2)CN(C2CCC(=O)NC2=O)C3=O)C1 (stereo partly drawn) [Example 69, ethyl (3R,5R)-3-((2-(2,6-dioxopiperidin-3-yl)-1-oxoisoindolin-5-yl)oxy)-5-ethoxypiperidine-1-carboxylate]	106	–	> 25000	–	–
